Where two headings read alike, the source gives them in different places. Where a SMILES comes first, the peptide text is derived from it. [ ]: non-standard residue; d: D form. The star is where a group is joined. Lauroyl = CCCCCCCCCCCC(=O)*; 12Ado = NCCCCCCCCCCCC(=O)O
Assays:
[1] = system: Human blood (red cells, 1% hematocrit); conditions: 3 h incubation in PBS 37°C; published data; cited from earlier work
Text: Table 1 Structure-activity study highlighting biophysical attributes of N-terminal OAK derivatives | column: LC50 ^d (μM)

[2] = system: panel of GNB: E. coli 35218, 14182, 16327, 16329, 14384, S. Typhimurium 14028, S. stanley 7308, K. pneumoniae 1287, KPC2; test: MIC and chemo-sensitization, one result for the whole panel of GNB (Suppl. Table S1)
[3] = system: Klebsiella; test: MIC (Suppl. Figs S2, S3); assay type: cell-based
[4] = system: E. coli; test: MIC and reciprocal sensitization (Fig. 2a,b; Suppl. Figs S2, S3); assay type: cell-based, Escherichia coli
[5] = one value for all nine listed strains
[6] = one value for all nine listed strains, OAK 1.25 µg/ml
[7] = one value for all nine listed strains, OAK 2.5 µg/ml
[8] = one value for all nine listed strains, OAK 5 µg/ml

Structure (SMILES): CCCCCCCCCCCC(=O)N[C@@H](CCCCN)C(=O)N[C@@H](CCCCN)C(=O)NCCCCCCCCCCCC(=O)N[C@@H](CCCCN)C(N)=O [C12X] (Lauroyl-KK[12Ado]K-NH2)
- LC50, OAK concentration that induced 50% hemolysis [1]: 29 ± 9 µM

Structure (SMILES): CC1(C)S[C@@H]2[C@H](NC(=O)Cc3ccccc3)C(=O)N2[C@H]1C(=O)O [Penicillin G, penicillin G]
- SF, sensitization factor, penicillin G with C10KKc12K [2, 5]: 1
- SF, sensitization factor, penicillin G with C12(ω7)KKc12K [2, 5]: 1
- MIC of penicillin G in presence of C10KKc12K [2, 6]: > 512 mg/L
- MIC of penicillin G in presence of C12(ω7)KKc12K [2, 6]: > 512 mg/L
- MIC of penicillin G in presence of C10KKc12K [2, 7]: > 512 mg/L
- MIC of penicillin G in presence of C12(ω7)KKc12K [2, 7]: > 512 mg/L
- MIC of penicillin G in presence of C10KKc12K [2, 8]: > 512 mg/L
- MIC of penicillin G in presence of C12(ω7)KKc12K [2, 8]: > 512 mg/L
- MIC ([2]; read-out: MIC of penicillin G in presence of C10KKc12K): > 512 mg/L
- MIC ([2]; read-out: MIC of penicillin G in presence of C12(ω7)KKc12K): > 512 mg/L

Structure (SMILES): NCCCC[C@H](NC(=O)CCCCCCCCCCCNC(=O)[C@H](CCCCN)NC(=O)[C@@H](N)CCCCN)C(N)=O [X, lysyl-lysyl-aminododecanoyl-lysyl-amide] (H-KK[12Ado]K-NH2)
- LC50, OAK concentration that induced 50% hemolysis [1]: >100 µM

Structure (SMILES): CC[C@H]1OC(=O)[C@H](C)[C@@H](O[C@H]2C[C@@](C)(OC)[C@@H](O)[C@H](C)O2)[C@H](C)[C@@H](O[C@@H]2O[C@H](C)C[C@H](N(C)C)[C@H]2O)[C@](C)(O)C[C@@H](C)C(=O)[C@H](C)[C@@H](O)[C@]1(C)O [erythromycin]
- standalone antibiotic MIC [3]: 512 mg/L
- standalone antibiotic MIC [4]: 512 mg/L

Source: article PMC4363860 (Scientific Reports, 2015)
